Experimental data from US9295676B2, “Mutation mimicking compounds that bind to the kinase domain of EGFR” (The Trustees Of The University of Pennsylvania, priority 2011, dated 2016).

Assays:
[1] = tested on: NE91 cells; experiment: Anchorage independent growth, soft agar colony formation; assay type: cell-based, mouse
Experimental: Studies on the effects of the target compounds on anchorage-independent growth of tumor cells used four different cell lines, A549, Calu-3, NE91 and T6-17, which have different levels of EGFR molecules on the cell surface. […] Cells were analyzed for their effects on anchorage-independent growth using soft agar assays described previously in Qian, et al., “Inhibition of p185neu kinase activity and cellular transformation of co-expression of a truncated neu protein,” Oncogene, 13: 2149-2157 (1996). The cells were plated in triplicate in 0.4% agar-HBBS and allowed to grow for 2 to 3 weeks. The cells will be fed with 0.5 ml media containing compounds on the day after plating and once a week thereafter. The colonies were stained with the HBSS solution containing 1 mg/ml of P-iodonitrotetrazolium violet (2-[4-iodophenyl]-3-[4-nitrophenyl]-5-phenyltetrazolium chloride). The number of the colonies formed were counted.

[2] = tested on: AsPC1 pancreatic tumors; experiment: In vivo tumor growth in mice with AsPC1 pancreatic tumors; conditions: for effect on tumor growth, single agent: 15 mg/kg, FIG. 10
Source text: FIG. 10 graphically represents the results of in vivo testing of EEO3 (A) and EEO4 (B) in mice with AsPC1 tumors.

[3] = molecular target: T1, wild type human EGFR (Homo sapiens, UniProt P00533); experiment: Western blot of EGFR phosphorylation in NE91 cells (FIG. 6A); assay type: cell-based
T1 construct: expressed in transfected cells; host or cells: NE91 (mouse fibroblasts)
Experimental: (§1) Total EGFR levels were measured as a control.
Studies measuring total EGFR phosphorylation and phosphorylation of different tyrosines, cell lines NE91, NCI-H1666 and A549 expressing wild type EGFR were treated with the target compounds for 3 hours followed by either induction with 50 ng/ml EGF for 15 min or no EGF induction. The cell lysates were subjected to the immunoprecipitation with anti-EGFR antibodies followed by Western blotting with anti-pY99 (total phospho-tyrosine), anti-pY845, anti-pY1045, anti-pY 1068 and/or anti-pY1173 antibodies.

[4] = molecular target: T2, L858R EGFR (Homo sapiens, UniProt P00533, L858R); experiment: Western blot of EGFR phosphorylation in mouse fibroblasts expressing L858R EGFR (FIG. 6B); assay type: cell-based
T2 construct: expressed in transfected cells; host or cells: mouse fibroblasts
Experimental: as §1
That is, while the binding affinity of the compounds tested in non-mutated EGFR defined by the cavity described above (and when Leu is present in the 858 position), when the single mutation is introduced such that Leu-858 is replaced by Arg-858—the binding affinity drops dramatically. […] Accordingly, MMCs may be characterized as having a higher binding constant (lower dissociation constant) for non-mutated vs. L858R mutated EGFR.

[5] = tested on: NCI-H1666 cells; experiment: Apoptosis by annexin V staining and FACS, wild-type EGFR cells; assay type: cell-based; conditions: wild-type EGFR cell line, 1 μM Tarceva® + 1 μM compound, 48 hrs
Experimental: Apoptosis was analyzed by FACS analysis after Annexin V staining and propidium iodide staining of DNA, and by Western blotting tracking caspase cascade activation. […] The cell lysates were subjected to Western blotting with anti-caspase-8, anti-caspase-3, anti-caspase-9 and anti-PARP antibodies to detect cleavage. NCI-H1650 and H3255 cells expressing mutant EGFR were used as a positive control in the apoptosis studies.

SMILES	inhibitory effect on colony formation, single agent at low concentration ([1]; low concentration, 1 nM, FIG. 8B)	effect on tumor growth, single agent [2]	receptor phosphorylation ([3]; compound alone, track 3)	Tarceva®-induced inhibition of EGFR phosphorylation ([3]; in combination with Tarceva®, track 4)	total EGFR levels ([3]; in the presence of the compound)	activation of EGFR phosphorylation ([4]; cell line expressing mutant EGFR, compound alone, FIG. 6B lanes 1 and 2)	enhancement of Tarceva®-induced inhibition of EGFR phosphorylation ([4]; mutant cell line, FIG. 6B lanes 7 and 8)	inhibitory effect on cell growth in combination with Tarceva® ([1]; 0.25 μM, FIG. 8A)	anchorage independent cell growth, single agent ([1]; compound alone, 0.25 μM, FIG. 8A)	enhancement of the inhibitory effect of Tarceva® on colony formation ([1]; with a low concentration of Tarceva®, 1 nM, FIG. 8B)	antitumor effect of the combination with Tarceva® ([2]; Tarceva® with 15 mg/kg of EEO3, FIG. 10)	apoptotic activity of Tarceva® in the presence of the MMC [5]
C#Cc1cccc(Nc2ncnc3cc(OCCOC)c(OCCOC)cc23)c1 [Tarceva®, erlotinib, reference compound]	does not have any inhibitory effect by itself	only a modest effect on tumor growth										
CC1(C)Cc2cccc(C(=O)N3CCC(O)(c4ccc(Cl)cc4)CC3)c2O1 [EEO3]		weak antitumor effect similar to Tarceva® alone	enhancement of receptor phosphorylation	enhancement of Tarceva®-induced inhibition of EGFR phosphorylation	No changes in total EGFR levels	does not activate EGFR phosphorylation	does not enhance	enhanced the inhibitory effect on cell growth	stimulated cell growth	even more dramatic	significant synergistic antitumor effect	
Nc1ccccc1Sc1nc(-c2ccccc2N)ccc1[N+](=O)[O-] [EEN6A]												increased to the level observed with Tarceva® alone in the mutant cell line
